Test results reported in patent publication US20090062294A1, “HETEROARYL-SUBSTITUTED UREA MODULATORS OF FATTY ACID AMIDE HYDROLASE” (priority 2007, published 2009).
Where a name gives a salt, the structure may show the parent alone.

Columns and labels:
FAAH = biological target: T1, FAAH (Homo sapiens, UniProt O00519); experiment: Assay Method 1: FAAH assay, 3H-anandamide hydrolysis in homogenate of T84 cells or SK-N-MC cells transfected with human FAAH; format: biochemical; conditions: average of results, > = solubility limit or highest concentration tested
T1 sequence (O00519 1-579): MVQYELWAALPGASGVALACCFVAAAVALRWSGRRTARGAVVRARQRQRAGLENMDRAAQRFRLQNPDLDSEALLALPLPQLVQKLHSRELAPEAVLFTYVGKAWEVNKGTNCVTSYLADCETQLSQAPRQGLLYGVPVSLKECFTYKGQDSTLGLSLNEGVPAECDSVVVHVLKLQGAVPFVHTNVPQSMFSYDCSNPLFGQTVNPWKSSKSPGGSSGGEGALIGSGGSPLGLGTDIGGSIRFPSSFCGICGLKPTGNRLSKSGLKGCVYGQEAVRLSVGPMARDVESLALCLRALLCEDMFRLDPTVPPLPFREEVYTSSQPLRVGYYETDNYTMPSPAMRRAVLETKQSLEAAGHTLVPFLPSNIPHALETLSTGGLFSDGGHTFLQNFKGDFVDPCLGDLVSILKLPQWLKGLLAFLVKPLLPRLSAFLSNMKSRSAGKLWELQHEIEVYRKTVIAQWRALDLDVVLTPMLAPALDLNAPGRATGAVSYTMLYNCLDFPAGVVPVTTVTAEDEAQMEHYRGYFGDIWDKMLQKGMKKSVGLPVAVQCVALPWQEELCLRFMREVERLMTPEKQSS
Method: A. Transfection of Cells with Human FAAH
(§1) A 10-cm tissue culture dish with a confluent monolayer of SK—N-MC cells was split 2 days (d) prior to transfection. Using sterile technique, the media was removed and the cells were detached from the dish by the addition of trypsin. One fifth of the cells were then placed onto a new 10-cm dish. Cells were grown in a 37° C. incubator with 5% CO2 in Minimal Essential Media Eagle with 10% Fetal Bovine Serum. After 2 d, cells were approximately 80% confluent. These cells were removed from the dish with trypsin and pelleted in a clinical centrifuge. The pellet was re-suspended in 400 μL complete media and transferred to an electroporation cuvette with a 0.4 cm gap between the electrodes. Supercoiled human FAAH cDNA (1 μg) was added to the cells and mixed. The voltage for the electroporation was set at 0.25 kV, and the capacitance was set at 960 μF. After electroporation, the cells were diluted into complete media (10 mL) and plated onto four 10-cm dishes. Because of the variability in the efficiency of electroporation, four different concentrations of cells were plated. The ratios used were 1:20, 1:10, and 1:5, with the remainder of the cells being added to the fourth dish. The cells were allowed to recover for 24 h before adding the selection media (complete media with 600 μg/mL G418). After 10 d, dishes were analyzed for surviving colonies of cells. Dishes with well-isolated colonies were used. Cells from individual colonies were isolated and tested.
(§2) T84 frozen cell pellets or transfected SK—N-MC cells (contents of 1×15 cm culture dishes) were homogenized in 50 mL of FAAH assay buffer (125 mM Tris, 1 mM EDTA, 0.2% Glycerol, 0.02% Triton X-100, 0.4 mM Hepes, pH 9). The assay mixture consisted of 50 μL of the cell homogenate, 10 μL of the test compound, and 40 μL of anandamide [1-^3H-ethanolamine] (^3H-AEA, Perkin-Elmer, 10.3 Ci/mmol), which was added last, for a final tracer concentration of 80 nM. The reaction mixture was incubated at rt for 1 h. During the incubation, 96-well Multiscreen filter plates (catalog number MAFCNOB50; Millipore, Bedford, Mass., USA) were loaded with 25 μL of activated charcoal (Multiscreen column loader, catalog number MACL09625, Millipore) and washed once with 100 μL of MeOH. Also during the incubation, 96-well DYNEX MicroLite plates (catalog number NL510410) were loaded with 100 μL of MicroScint40 (catalog number 6013641, Packard Bioscience, Meriden, Conn., USA). After the 1 h incubation, 60 μL of the reaction mixture were transferred to the charcoal plates, which were then assembled on top of the DYNEX plates using Centrifuge Alignment Frames (catalog number MACF09604, Millipore). The unbound labeled ethanolamine was centrifuged through to the bottom plate (5 min at 2000 rpm), which was preloaded with the scintillant, as described above. The plates were sealed and left at rt for 1 h before counting on a Hewlett Packard TopCount.
(§3) Compounds were tested in free base, hydrochloride salt, and/or trifluoroacetic acid salt forms.

rat FAAH = biological target: T2, rat FAAH (Rattus norvegicus, UniProt P97612); experiment: Assay Method 2: FAAH assay, 3H-anandamide hydrolysis in homogenate of SK-N-MC cells transfected with rat FAAH; format: biochemical; conditions: average of results, > = solubility limit or highest concentration tested
T2 sequence (P97612 1-579): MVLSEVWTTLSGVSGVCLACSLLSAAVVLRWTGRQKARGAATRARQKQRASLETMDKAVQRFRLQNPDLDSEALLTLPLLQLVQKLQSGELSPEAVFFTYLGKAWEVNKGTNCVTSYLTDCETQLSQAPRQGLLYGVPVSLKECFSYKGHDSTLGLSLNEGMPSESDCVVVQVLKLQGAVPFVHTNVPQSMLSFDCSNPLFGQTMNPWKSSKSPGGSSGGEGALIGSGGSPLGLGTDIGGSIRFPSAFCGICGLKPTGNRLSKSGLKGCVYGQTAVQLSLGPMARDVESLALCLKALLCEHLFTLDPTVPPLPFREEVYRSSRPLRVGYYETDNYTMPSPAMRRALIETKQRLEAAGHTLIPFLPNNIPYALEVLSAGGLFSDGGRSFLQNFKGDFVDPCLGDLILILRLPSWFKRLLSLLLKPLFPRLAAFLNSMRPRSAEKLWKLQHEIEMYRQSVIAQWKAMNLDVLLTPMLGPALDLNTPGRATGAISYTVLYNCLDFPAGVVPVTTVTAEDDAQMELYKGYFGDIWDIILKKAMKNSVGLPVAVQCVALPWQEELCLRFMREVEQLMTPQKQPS
Method: A. Transfection of Cells with Rat FAAH
as §1, with “rat” for “human”
as §2, §3

| SMILES | IC50 (FAAH) [nM] | IC50 (rat FAAH) [nM] |
| --- | --- | --- |
| O=C(Nc1noc2ccccc12)N1CCC(Cc2ccc(F)cc2)CC1 [Example 22, 4-(4-Fluoro-benzyl)-piperidine-1-carboxylic acid benzo[d]isoxazol-3-ylamide] | 108 | 77 |
| Cc1cc(NC(=O)N2CCN(Cc3cccc(Oc4ccc(Cl)cc4)c3)CC2)n[nH]1 [Example 194, 4-[3-(4-Chlorophenoxy)benzyl]-N-(5-methyl-1H-pyrazol-3-yl)piperazine-1-carboxamide] | 220 | 4000 |
| N#Cc1cccc(Oc2cccc(CN3CCN(C(=O)Nc4cnccn4)CC3)c2)c1 [Example 235, 4-[3-(3-Cyanophenoxy)benzyl]-N-pyrazin-2-ylpiperazine-1-carboxamide] | 600 | 6000 |
| O=C(Nc1ccon1)N1CCN(Cc2ccc(Br)c(F)c2)CC1 [Example 151, 4-(4-Bromo-3-fluoro-benzyl)-piperazine-1-carboxylic acid isoxazol-3-ylamide] | 3000 | 6000 |
| Cc1cnc(NC(=O)N2CCN(Cc3cccc(C#Cc4ccccc4Cl)c3)CC2)cn1 [Example 80, 4-{3-[(2-Chlorophenyl)ethynyl]benzyl}-N-(5-methylpyrazin-2-yl)piperazine-1-carboxamide] | 5000 | 4000 |
| O=C(Nc1cccnn1)N1CCN(Cc2cnc3ccccc3c2)CC1 [Example 197, N-Pyridazin-3-yl-4-(quinolin-3-ylmethyl)piperazine-1-carboxamide] | 1300 | 9000 |
| O=C(Nc1noc2ccccc12)N1CCN(Cc2cccc(Oc3cc(F)cc(F)c3)c2)CC1 [Example 34, 4-[3-(3,5-Difluoro-phenoxy)-benzyl]-piperazine-1-carboxylic acid benzo[d]isoxazol-3-ylamide trifluoroacetic acid salt] | 152 | 190 |
| O=C(Nc1nnn[nH]1)N1CCN(Cc2cccc(Oc3cccc(OC(F)(F)F)c3)c2)CC1 [Example 173, N-1H-Tetrazol-5-yl-4-{3-[3-(trifluoromethoxy)phenoxy]benzyl}piperazine-1-carboxamide] | 225 | 200 |
| O=C(Nc1noc2ccccc12)N1CCN(Cc2cccc(C#Cc3cccc(Cl)c3Cl)c2)CC1 [Example 90, N-1,2-Benzisoxazol-3-yl-4-{3-[(2,3-dichlorophenyl)ethynyl]benzyl}-piperazine-1-carboxamide] | 195 | 815 |
| N#Cc1ccc(Oc2cccc(CN3CCN(C(=O)Nc4nn[nH]n4)CC3)c2)cc1 [Example 187, 4-[3-(4-Cyanophenoxy)benzyl]-N-2H-tetrazol-5-ylpiperazine-1-carboxamide] | 1600 | 1000 |
| O=C(Nc1nn[nH]n1)N1CCN(Cc2cccc(Oc3cccc(C(F)(F)F)c3)c2)CC1 [Example 186, N-2H-Tetrazol-5-yl-4-{3-[3-(trifluoromethyl)phenoxy]benzyl}piperazine-1-carboxamide] | 330 | 160 |

Now those with a lower IC50 (FAAH), led by results:

| IC50 (FAAH) [nM] | IC50 (rat FAAH) [nM] | SMILES |
| --- | --- | --- |
| 80 | 37 | O=C(Nc1noc2ccccc12)N1CCN(Cc2ccc(OC(F)(F)F)c(Cl)c2)CC1 [Example 107, N-1,2-Benzisoxazol-3-yl-4-[3-chloro-4-(trifluoromethoxy)benzyl]-piperazine-1-carboxamide] |
| 44 | 2000 | CN(C)CC#Cc1cccc(CN2CCN(C(=O)Nc3noc4ccccc34)CC2)c1 [Example 69, N-1,2-Benzisoxazol-3-yl-4-{3-[3-(dimethylamino)prop-1-yn-1-yl]benzyl}-piperazine-1-carboxamide] |
| 20 | 270 | O=C(Nc1ccon1)N1CCN(Cc2cccc(Oc3ccc(SC(F)(F)F)cc3)c2)CC1 [Example 155, N-Isoxazol-3-yl-4-(3-{4-[(trifluoromethyl)sulfanyl]phenoxy}benzyl)-piperazine-1-carboxamide] |
| 60 | 360 | O=C(Nc1ccon1)N1CCN(Cc2cccc(Oc3ccc(OCC(F)(F)F)cc3)c2)CC1 [Example 137, N-Isoxazol-3-yl-4-{3-[4-(2,2,2-trifluoroethoxy)phenoxy]benzyl}piperazine-1-carboxamide] |
| 50 | 10 | O=C(Nc1nnn[nH]1)N1CCN(Cc2cccc(Oc3ccc(SC(F)(F)F)cc3)c2)CC1 [Example 172, N-1H-Tetrazol-5-yl-4-(3-{4-[(trifluoromethyl)sulfanyl]phenoxy}benzyl)-piperazine-1-carboxamide] |
| 11 | 21 | O=C(Nc1noc2ccccc12)N1CCN(Cc2cccc(Oc3ccc(Cl)c(F)c3)c2)CC1 [Example 206, 4-[3-(4-Chloro-3-fluoro-phenoxy)-benzyl]-piperazine-1-carboxylic acid benzo[d]isoxazol-3-ylamide] |
| 70 | 9 | O=C(Nc1cccc2nsnc12)N1CCN(Cc2cccc(Oc3ccc(Cl)c(Cl)c3)c2)CC1 [Example 38, 4-[3-(3,4-Dichloro-phenoxy)-benzyl]-piperazine-1-carboxylic acid benzo[1,2,5]thiadiazol-4-ylamide trifluoroacetic acid salt] |
| 17 | 25 | O=C(Nc1noc2ccccc12)N1CCN(Cc2ccc(Br)c(Br)c2)CC1 [Example 121, N-1,2-Benzisoxazol-3-yl-4-(3,4-dibromobenzyl)piperazine-1-carboxamide] |
